Laboratory results taken from the Kinase Knowledgebase extract (Sharma et al. 2016).

Molecular target: PIK3CG (human) (UniProt P48736)
Test: Assessment of PIK3CG Kinase Activity

Sequence of PIK3CG (human) (P48736 whole entry, looked up): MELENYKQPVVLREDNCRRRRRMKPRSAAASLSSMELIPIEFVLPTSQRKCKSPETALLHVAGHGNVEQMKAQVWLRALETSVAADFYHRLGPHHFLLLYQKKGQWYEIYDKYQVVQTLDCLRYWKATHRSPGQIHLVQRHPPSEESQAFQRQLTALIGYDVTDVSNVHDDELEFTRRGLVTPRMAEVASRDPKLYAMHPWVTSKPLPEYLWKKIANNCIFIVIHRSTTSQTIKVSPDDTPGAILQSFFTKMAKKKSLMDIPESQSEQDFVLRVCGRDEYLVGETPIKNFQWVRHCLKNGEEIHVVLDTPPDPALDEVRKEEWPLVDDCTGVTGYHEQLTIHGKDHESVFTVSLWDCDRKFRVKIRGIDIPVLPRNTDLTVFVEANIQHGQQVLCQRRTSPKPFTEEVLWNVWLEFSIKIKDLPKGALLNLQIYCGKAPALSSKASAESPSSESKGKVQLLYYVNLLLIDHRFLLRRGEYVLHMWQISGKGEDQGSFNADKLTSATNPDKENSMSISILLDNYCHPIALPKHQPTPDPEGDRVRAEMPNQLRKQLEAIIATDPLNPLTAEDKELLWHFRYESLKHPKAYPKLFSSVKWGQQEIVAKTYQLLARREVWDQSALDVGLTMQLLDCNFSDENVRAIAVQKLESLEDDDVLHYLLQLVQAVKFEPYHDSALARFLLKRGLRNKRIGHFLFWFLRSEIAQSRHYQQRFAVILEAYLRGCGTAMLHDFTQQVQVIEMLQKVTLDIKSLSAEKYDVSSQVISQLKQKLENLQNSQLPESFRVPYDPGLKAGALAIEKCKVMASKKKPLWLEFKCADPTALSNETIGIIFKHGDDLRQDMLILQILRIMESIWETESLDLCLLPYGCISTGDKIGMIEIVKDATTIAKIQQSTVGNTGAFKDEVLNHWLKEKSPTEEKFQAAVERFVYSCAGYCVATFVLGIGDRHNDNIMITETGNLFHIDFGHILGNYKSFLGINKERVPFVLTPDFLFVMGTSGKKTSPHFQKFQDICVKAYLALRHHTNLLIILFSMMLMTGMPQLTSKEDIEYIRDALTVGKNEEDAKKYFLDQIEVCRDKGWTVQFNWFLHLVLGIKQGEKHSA

Row | SMILES | Ki
1 | COC(=O)CCCC(=O)Nc1nc(C)c(C#Cc2ccncc2)s1 | 50 to 250 nM
2 | CC(=O)NCC(=O)Nc1nc(C)c(C#Cc2ccncc2)s1 | < 50 nM
3 | Cc1nc(NC(=O)NCCOc2cccc(Cl)c2)sc1C#Cc1ccncc1 | < 50 nM
4 | COc1ccc(C#Cc2sc(NC(=O)NCCOCC3CC3)nc2C)nc1OC | < 50 nM
5 | CCC(O)CNC(=O)Nc1nc(C)c(C#Cc2cncc(OC)c2)s1 (stereo unspecified) | < 50 nM
6 | COc1cc(C#Cc2sc(NC(=O)NC[C@H](C)OCC3CC3)nc2C)cnc1OC | < 50 nM
7 | CC(=O)Nc1nc(C)c(C#Cc2ccccc2C)s1 | < 50 nM
8 | Cc1nc(NC(=O)NCCc2cn(CC(F)(F)F)cn2)sc1C#Cc1ccccc1 | < 50 nM
9 | CC(=O)Nc1nc(C)c(C#Cc2ccccc2)s1 | 50 to 250 nM
10 | Cc1cc(O)nc(CCNC(=O)Nc2nc(C)c(C#Cc3ccncc3)s2)n1 | 50 to 250 nM
11 | CCc1nc(NC(C)=O)sc1C#Cc1ccncc1 | 50 to 250 nM
12 | CCc1cnn(CCNC(=O)Nc2nc(C)c(C#Cc3ccncc3)s2)c1 | < 50 nM
13 | Cc1nc(NC(=O)NCCc2ccncc2)sc1C#Cc1ccncc1 | 50 to 250 nM
14 | Cc1nc(NC(=O)CCCC(=O)NCC(F)F)sc1C#Cc1ccncc1 | 50 to 250 nM
15 | CC(=O)Nc1nc(C)c(C#Cc2cccc(N)c2)s1 | 50 to 250 nM
16 | Cc1nc(NC(=O)NCCOC(=O)c2ccccc2)sc1C#Cc1ccncc1 | < 50 nM
17 | Cc1nc(NC(=O)NCCOCC2CC2)sc1C#Cc1ccc(Cl)nc1 | 50 to 250 nM
18 | COc1cncc(C#Cc2sc(NC(=O)NC[C@H](C)O)nc2C)c1 | < 50 nM
19 | Cc1nc(NC(=O)NC[C@H](C)OCC2CC2)sc1C#Cc1ccc2nccnc2c1 | < 50 nM
20 | COc1cc(C#Cc2sc(NC(=O)NCCOc3cccnc3)nc2C)cnc1OC | < 50 nM
21 | Cc1nc(NC(=O)NCCOCC2CC2)sc1C#Cc1ccc2nccnc2c1 | < 50 nM
22 | COc1ccc(CNC(=O)Nc2nc(C)c(C#Cc3ccncc3)s2)cc1 | < 50 nM

Row | SMILES | Ki
23 | Cc1nc(NC(=O)NCCC2CCCCO2)sc1C#Cc1ccncc1 (stereo unspecified) | < 50 nM
24 | Cc1nc(NC(=O)CCNC(=O)c2ccccn2)sc1C#Cc1cccnc1 | < 50 nM
25 | Cc1nc(NC(=O)CCCc2cc[nH]c2)sc1C#Cc1ccncc1 | 50 to 250 nM
26 | Cc1nc(NC(=O)NCCOCC2CC2)sc1C#Cc1cncc(C(F)(F)F)c1 | 50 to 250 nM
27 | CCn1cnc(CCNC(=O)Nc2nc(C)c(C#Cc3ccncc3)s2)c1Cl | < 50 nM
28 | COc1cc(C#Cc2sc(NC(=O)NCCOCC3CC3)nc2C)cnc1OC | < 50 nM
29 | CCOC(=O)CCCC(=O)Nc1nc(C)c(C#Cc2ccncc2)s1 | 50 to 250 nM
30 | Cc1nc(NC(=O)NCCc2cn(CC(F)F)cn2)sc1C#Cc1cccnc1 | < 50 nM
31 | Cc1nc(NC(=O)NC[C@H](C)OCC2CC2)sc1C#Cc1ccc2ncccc2c1 | < 50 nM
32 | COc1cncc(C#Cc2sc(NC(=O)NC[C@H](C)OCC3CC3)nc2C)c1 | < 50 nM
33 | CC(=O)N1CC(C(=O)Nc2nc(C)c(C#Cc3ccncc3)s2)C1 | 50 to 250 nM
34 | COc1ccccc1OCCNC(=O)Nc1nc(C)c(C#Cc2ccncc2)s1 | < 50 nM
35 | CCCOCCNC(=O)Nc1nc(C)c(C#Cc2ccncc2)s1 | < 50 nM
36 | CCn1c(C)nc(CCNC(=O)Nc2nc(C)c(C#Cc3ccncc3)s2)c1Cl | < 50 nM
37 | Cc1nc(NC(=O)NCCOCC2CC2)sc1C#Cc1ccncc1F | < 50 nM
38 | COc1cc(C#Cc2sc(NC(=O)NCCn3cnc(C(F)(F)F)c3)nc2C)cnc1OC | < 50 nM
39 | COc1cncc(C#Cc2sc(NC(C)=O)nc2C)c1 | < 50 nM
40 | Cc1nc(NC(=O)NCCCOCC(F)(F)F)sc1C#Cc1ccncc1 | 50 to 250 nM
41 | CC(=O)Nc1nc(C)c(C#Cc2sc(NC(=O)NCCOCC3CC3)nc2C)s1 | 50 to 250 nM
42 | Cc1nc(NC(=O)NCCOCC2CC2)sc1C#Cc1ccc2nccn2c1 | < 50 nM
43 | Cc1nc(NC(=O)NCCc2cn(CCF)cn2)sc1C#Cc1ccncc1 | < 50 nM
44 | Cc1nc(NC(=O)CNC(=O)c2ccccn2)sc1C#Cc1cccnc1 | < 50 nM

Row | SMILES | Ki
45 | Cc1nc(NC(=O)NCc2ccccn2)sc1C#Cc1ccncc1 | < 50 nM
46 | Cc1nc(NC(=O)NCCc2nccs2)sc1C#Cc1ccncc1 | 50 to 250 nM
47 | Cc1nc(NC(=O)NCCC(=O)NC(C)C)sc1C#Cc1ccncc1 | < 50 nM
48 | Cc1nc(NC(=O)NCC#N)sc1C#Cc1ccncc1 | < 50 nM
49 | COc1cc(C#Cc2sc(NC(=O)NCCOc3ccccn3)nc2C)cnc1OC | < 50 nM
50 | Cc1nc(NC(=O)NCCOCC2CCCC2)sc1C#Cc1ccncc1 | < 50 nM
51 | CC(=O)Nc1nc(C)c(C#Cc2cncc(C(F)(F)F)c2)s1 | 50 to 250 nM
52 | COc1ccc(OCCNC(=O)Nc2nc(C)c(C#Cc3ccncc3)s2)cc1 | < 50 nM
53 | Cc1cccc(OCCNC(=O)Nc2nc(C)c(C#Cc3ccncc3)s2)c1 | < 50 nM
54 | CC(=O)Nc1nc(C)c(C#Cc2ccc(Cl)nc2)s1 | 50 to 250 nM
55 | Cc1nc(NC(=O)NCCOCC2CC2)sc1C#Cc1ccnc2ccccc12 | < 50 nM
56 | COC1CN(C(=O)Nc2nc(C)c(C#Cc3ccncc3)s2)C1 | < 50 nM
57 | Cc1cccc(NC(=O)CC(=O)Nc2nc(C)c(C#Cc3ccncc3)s2)c1 | 50 to 250 nM
58 | CCOCCNC(=O)Nc1nc(C)c(C#Cc2ccccc2)s1 | < 50 nM
59 | CCc1ccc(CNC(=O)Nc2nc(C)c(C#Cc3ccncc3)s2)nc1 | < 50 nM
60 | CCOC(=O)[C@H]1CCC[C@H]1NC(=O)Nc1nc(C)c(C#Cc2ccncc2)s1 | 50 to 250 nM
61 | Cc1nc(NC(=O)NC[C@H](C)OCC2CC2)sc1C#Cc1cncc(F)c1 | < 50 nM
62 | COc1cccc(C#Cc2sc(NC(C)=O)nc2C)c1 | 50 to 250 nM
63 | CCCO[C@@H](C)CNC(=O)Nc1nc(C)c(C#Cc2ccncc2)s1 | < 50 nM
64 | CC(=O)Nc1nc(C)c(C#Cc2cccnc2)s1 | 50 to 250 nM
65 | Cc1nc(NC(=O)COc2ccccc2)sc1C#Cc1ccncc1 | 50 to 250 nM
66 | CCCCOCCCNC(=O)Nc1nc(C)c(C#Cc2ccncc2)s1 | < 50 nM

Row | SMILES | Ki
67 | CC(=O)Nc1nc(C)c(C#Cc2ccncc2)s1 | < 50 nM
68 | CCCOCCOC(=O)Nc1nc(C)c(C#Cc2ccncc2)s1 | < 50 nM
69 | CC(=O)Nc1ccc(C#Cc2sc(NC(=O)NCCOCC3CC3)nc2C)cn1 | 50 to 250 nM
70 | Cc1nc(NC(=O)NCCC(=O)c2ccccc2)sc1C#Cc1ccncc1 | < 50 nM
71 | CCn1cnc(CCNC(=O)Nc2nc(C)c(C#Cc3ccncc3)s2)c1 | < 50 nM
72 | Cc1nc(NC(=O)NCC2CCCCO2)sc1C#Cc1ccncc1 (stereo unspecified) | < 50 nM
73 | CCCn1cnc(CCNC(=O)Nc2nc(C)c(C#Cc3ccncc3)s2)c1 | < 50 nM
74 | Cc1nc(NC(=O)NCCOCC2CC2)sc1C#Cc1ccnc(F)c1 | < 50 nM
75 | CCOC(=O)N1CCC(OC(=O)Nc2nc(C)c(C#Cc3ccncc3)s2)CC1 | 50 to 250 nM
76 | Cc1nc(NC(=O)NCCC#N)sc1C#Cc1ccncc1 | < 50 nM
77 | Cc1nc(NC(=O)COCc2ccccc2)sc1C#Cc1ccncc1 | 50 to 250 nM
78 | Cc1nc(NC(=O)NCCOCC2CC2)sc1C#Cc1cccc2ncccc12 | < 50 nM
79 | Cc1nc(NC(=O)NCCOc2ccc(F)cc2)sc1C#Cc1ccncc1 | < 50 nM
80 | Cc1nc(NC(=O)NCCOCC2CC2)sc1C#Cc1cncn1C | 50 to 250 nM
81 | CC(=O)Nc1nc(C)c(C#Cc2cccc(C)c2)s1 | 50 to 250 nM
82 | Cc1nc(NC(=O)NCCOCC(F)(F)F)sc1C#Cc1ccncc1 | 50 to 250 nM
83 | Cc1nc(NC(=O)NCCOCCN2CCOCC2)sc1C#Cc1ccncc1 | 50 to 250 nM
84 | Cc1nc(NC(=O)NCCc2cccnc2)sc1C#Cc1ccncc1 | < 50 nM
85 | Cc1nc(NC(=O)NCCc2ncn(CC(F)F)c2Cl)sc1C#Cc1ccncc1 | < 50 nM
86 | CCn1cc(CCNC(=O)Nc2nc(C)c(C#Cc3ccncc3)s2)cn1 | < 50 nM
